Results as given in US20120214847A1, “2-[1-PHENYL-5-HYDROXY-4a-SUBSTITUTED-HEXAHYDROCYCLOPENTA[F]INDAZOL-5-YL]ETHYL PHENYL DERIVATIVES AS GLUCOCORTICOID RECEPTOR LIGANDS” (Merck Sharp & Dohme Corp., priority 2009, published 2012).

Target: T1, human GR (Homo sapiens, UniProt P04150)
T1 construct: naturally expresses the human GR; endogenous in cells
T1 sequence (P04150 1-777): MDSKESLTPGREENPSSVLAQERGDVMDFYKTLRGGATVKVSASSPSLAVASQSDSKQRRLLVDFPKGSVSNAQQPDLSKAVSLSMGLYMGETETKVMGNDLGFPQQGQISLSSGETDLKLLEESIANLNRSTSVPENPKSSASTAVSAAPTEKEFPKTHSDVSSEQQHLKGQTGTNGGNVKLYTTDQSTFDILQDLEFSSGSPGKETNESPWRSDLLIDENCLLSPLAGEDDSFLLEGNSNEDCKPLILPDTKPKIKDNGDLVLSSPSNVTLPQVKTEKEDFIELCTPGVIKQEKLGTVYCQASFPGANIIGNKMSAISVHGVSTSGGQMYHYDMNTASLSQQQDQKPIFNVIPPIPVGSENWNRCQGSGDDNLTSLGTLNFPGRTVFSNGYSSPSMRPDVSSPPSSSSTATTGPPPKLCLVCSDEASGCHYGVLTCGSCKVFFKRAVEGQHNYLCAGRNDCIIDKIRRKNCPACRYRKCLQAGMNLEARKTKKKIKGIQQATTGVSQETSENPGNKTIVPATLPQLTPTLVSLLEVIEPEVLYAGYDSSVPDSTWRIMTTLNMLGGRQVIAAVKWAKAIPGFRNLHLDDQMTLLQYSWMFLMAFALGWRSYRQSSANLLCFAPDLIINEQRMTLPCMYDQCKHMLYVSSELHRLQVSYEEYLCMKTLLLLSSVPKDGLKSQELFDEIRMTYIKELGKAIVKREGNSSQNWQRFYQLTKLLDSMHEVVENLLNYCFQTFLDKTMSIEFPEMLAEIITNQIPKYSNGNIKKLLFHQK
Assay: Transrepression assay (GITAR), TNFα-β-lactamase reporter in U937 cells
Assay type: cell-based
Details: for EC50: U937 cells, IP = inflection point; for Emax: U-937, U937 cells, activity repressed by 100 nM dexamethasone alone set as 100%
From the text: Transrepression Assay (GITAR)
This assay assesses the ability of test compounds to control transcription from the TNFα-β-lactamase reporter gene in U937 cells, a human myelomonocytic leukemia cell line that naturally expresses the human GR. The assay measures compound dependent-repression of the TNFa promoter linked to a reporter gene.
The human U937 cells that had been stablely transfected with the TNF-a promoter driving ˜-lactamase are used for this assay. U937 cells contain an endogenous glucocorticoid receptor (GR). Cells are maintained in RPMI 1640 Growth medium (GibcoCat#11875-093) containing 25 mM HEPES, 10% FBS, 2 mM L-Glutamine, 1 mM Sodium pyruvate, 25 μg/ml Gentamicin (Gibed Cat#1571 0-064), 1:1000 2-Mercaptoethanol (Gibco Cat#21985-023) and 0.8 mg/ml G418 (Gibco Cat#10131-027). The density of the cells in the flask needs to be about 1×10^6-3×10^6/ml at the time of harvest. Usually, the cells are split to 1.2˜1.4×10^5/ml (1:10) 3 days prior to the assay. 50,000 cells/well are plated in 96 well black-walled plates the day of assay. Test compounds are added 10 J.lL/well, and cells are incubated at 37° C. for 30˜45 min. For assaying compounds, first dilute 1:10 in DMSO to make 1 mM, then further dilute 1:100 in medium to make 10× stock prior to adding to the cells. Add 50 ng/ml PMA (Sigma, cat#P8139) 10 μL/well to a final concentration 5 ng/ml, and 1 μg/ml LPS (Sigma, cat#L4130) 10 μL/well to a final concentration 100 ng/ml. Incubate cells at 370 C overnight for −18 hr. PMA is stored frozen as […] in DMSO. Dilute 1:10 in DMSO for a working stock of 10 μg/ml and store at −20° C. For assaying, dilute the 10 μg/ml working stock 1:200 in medium to make a 10× solution (50 ng/ml). Store frozen LPS at 1 mg/ml in PBS, dilute 1:1000 in medium to make 10×μg/ml) for the assay. Add 6× loading buffer (CCF2-AM) 20 μL/well, and incubate at room temperature for 70-90 min. […] The activity repressed by 100 nM dexamethasone alone is set as 100% activity.

SMILES: CC[C@]12Cc3cnn(-c4ccc(F)cc4)c3C=C1CC[C@@]2(O)CCc1nccc(C2CC2)c1C(=O)OC [Example 41, Methyl 4-cyclopropyl-2-{2-[(4aS,5R)-4a-ethyl-1-(4-fluorophenyl)-5-hydroxy-1,4,4a,5,6,7-hexahydrocyclopenta[f]indazol-5-yl]ethyl}pyridine-3-carboxylate]
- EC50: 262 nM
- Emax: 79%

SMILES: CC[C@]12Cc3cnn(-c4ccc(F)cc4)c3C=C1CC[C@@]2(O)CCc1ccccc1S(C)(=O)=O [Example 42, (4aS,5R)-4a-Ethyl-1-(4-fluorophenyl)-5-{2-[2-(methylsulfonyl)phenyl]ethyl}-1,4,4a,5,6,7-hexahydrocyclopenta[f]indazol-5-ol]
- EC50: 11 nM
- Emax: 89%

SMILES: NC(=O)CNC(=O)c1cccnc1CC[C@]1(O)CCC2=Cc3c(cnn3-c3ccc(F)cc3)C[C@@]21C1CC1 [Example 43, N-(2-Amino-2-oxoethyl)-2-{2-[(4aR,5R)-4a-cyclopropyl-1-(4-fluorophenyl)-5-hydroxy-1,4,4a,5,6,7-hexahydrocyclopenta[f]indazol-5-yl]ethyl}pyridine-3-carboxamide]
- EC50: 52 nM
- Emax: 86%

SMILES: NC(=O)CNC(=O)c1cc(F)cnc1CC[C@]1(O)CCC2=Cc3c(cnn3-c3ccc(F)cc3)C[C@@]21C1CC1 [Example 44, N-(2-Amino-2-oxoethyl)-2-{2-[(4aR,5R)-4a-cyclopropyl-1-(4-fluorophenyl)-5-hydroxy-1,4,4a,5,6,7-hexahydrocyclopenta[f]indazol-5-yl]ethyl}-5-fluoropyridine-3-carboxamide]
- EC50: 38 nM
- Emax: 86%

SMILES: CC(C)(CO)NC(=O)c1ccccc1CC[C@]1(O)CCC2=Cc3c(cnn3-c3ccc(F)cc3)C[C@@]21C1CC1 [Example 45, 2-{2-[(4aR,5R)-4a-Cyclopropyl-1-(4-fluorophenyl)-5-hydroxy-1,4,4a,5,6,7-hexahydrocyclopenta[f]indazol-5-yl]ethyl}-N-(1-hydroxy-2-methylpropan-2-yl)benzamide]
- EC50: 9 nM
- Emax: 85%

SMILES: O=C(NC1(CO)CC1)c1ccccc1CC[C@]1(O)CCC2=Cc3c(cnn3-c3ccc(F)cc3)C[C@@]21C1CC1 [Example 46, 2-{2-[(4aR,5R)-4a-Cyclopropyl-1-(4-fluorophenyl)-5-hydroxy-1,4,4a,5,6,7-hexahydrocyclopenta[f]indazol-5-yl]ethyl}-N-[1-(hydroxymethyl)cyclopropyl]benzamide]
- EC50: 7 nM
- Emax: 90%

SMILES: NC(=O)CNC(=O)c1ccccc1CC[C@]1(O)CCC2=Cc3c(cnn3-c3ccc(F)cc3)C[C@@]21C1CC1 [Example 47, N-(2-Amino-2-oxoethyl)-2-{2-[(4aR,5R)-4a-cyclopropyl-1-(4-fluorophenyl)-5-hydroxy-1,4,4a,5,6,7-hexahydrocyclopenta[f]indazol-5-yl]ethyl}benzamide]
- EC50: 9 nM
- Emax: 83%

SMILES: CC(C)(CO)NC(=O)c1cc(F)cnc1CC[C@]1(O)CCC2=Cc3c(cnn3-c3ccc(F)cc3)C[C@@]21C1CC1 [Example 48, 2-{2-[(4aR,5R)-4a-Cyclopropyl-1-(4-fluorophenyl)-5-hydroxy-1,4,4a,5,6,7-hexahydrocyclopenta[f]indazol-5-yl]ethyl}-5-fluoro-N-(1-hydroxy-2-methylpropan-2-yl)pyridine-3-carboxamide]
- EC50: 9 nM
- Emax: 87%

SMILES: NC(=O)c1c(C2CC2)ccnc1CC[C@]1(O)CCC2=Cc3c(cnn3-c3ccc(F)cc3)C[C@@]21C1CC1 [Example 49, 4-Cyclopropyl-2-{2-[(4aR,5R)-4a-cyclopropyl-1-(4-fluorophenyl)-5-hydroxy-1,4,4a,5,6,7-hexahydrocyclopenta[f]indazol-5-yl]ethyl}pyridine-3-carboxamide]
- EC50: 12 nM
- Emax: 78%

SMILES: O=C(NCCO)c1ccccc1CC[C@]1(O)CCC2=Cc3c(cnn3-c3ccc(F)cc3)C[C@@]21C1CC1 [Example 50, 2-{2-[(4aR,5R)-4a-Cyclopropyl-1-(4-fluorophenyl)-5-hydroxy-1,4,4a,5,6,7-hexahydrocyclopenta[f]indazol-5-yl]ethyl}-N-(2-hydroxyethyl)benzamide]
- EC50: 9 nM
- Emax: 88%

SMILES: CC[C@]12Cc3cnn(-c4ccc(F)cc4)c3C=C1CC[C@@]2(O)CCc1ccccc1S(=O)(=O)CC [Example 51, (4aS,5R)-4a-Ethyl-5-{2-[2-(ethylsulfonyl)phenyl]ethyl}-1-(4-fluorophenyl)-1,4,4a,5,6,7-hexahydrocyclopenta[f]indazol-5-ol]
- EC50: 65 nM
- Emax: 83%

SMILES: CC[C@]12Cc3cnn(-c4ccc(F)cc4)c3C=C1CC[C@@]2(O)CCc1ncccc1C(N)=O [Example 52, 2-{2-[(4aS,5R)-4a-Ethyl-1-(4-fluorophenyl)-5-hydroxy-1,4,4a,5,6,7-hexahydrocyclopenta[f]indazol-5-yl]ethyl}pyridine-3-carboxamide]
- EC50: 53 nM
- Emax: 85%

SMILES: CC[C@]12Cc3cnn(-c4ccc(F)cc4)c3C=C1CC[C@@]2(O)CCc1ncc(F)cc1C(N)=O [Example 53, 2-{2-[(4aS,5R)-4a-Ethyl-1-(4-fluorophenyl)-5-hydroxy-1,4,4a,5,6,7-hexahydrocyclopenta[f]indazol-5-yl]ethyl}-5-fluoropyridine-3-carboxamide]
- EC50: 75 nM
- Emax: 86%

SMILES: COc1ccnc(CC[C@]2(O)CCC3=Cc4c(cnn4-c4ccc(F)cc4)C[C@@]32C2CC2)c1C(N)=O [Example 54, 2-{2-[(4aR,5R)-4a-Cyclopropyl-1-(4-fluorophenyl)-5-hydroxy-1,4,4a,5,6,7-hexahydrocyclopenta[f]indazol-5-yl]ethyl}-4-methoxypyridine-3-carboxamide]
- EC50: 48 nM
- Emax: 77%

SMILES: NC(=O)c1c(C(F)(F)F)ccnc1CC[C@]1(O)CCC2=Cc3c(cnn3-c3ccc(F)cc3)C[C@@]21C1CC1 [Example 55, 2-{2-[(4aR,5R)-4a-Cyclopropyl-1-(4-fluorophenyl)-5-hydroxy-1,4,4a,5,6,7-hexahydrocyclopenta[f]indaozol-5-yl]ethyl}-4-(trifluoromethyl)pyridine-3-carboxamide]
- EC50: 2 nM
- Emax: 87%

SMILES: NC(=O)Cc1ccccc1CC[C@]1(O)CCC2=Cc3c(cnn3-c3ccc(F)cc3)C[C@@]21C1CC1 [Example 56, 2-(2-{2-[(4aR,5S)-4a-Cyclopropyl-1-(4-fluorophenyl)-5-hydroxy-1,4,4a,5,6,7-hexahydrocyclopenta[f]indazol-5-yl]ethyl}phenyl)acetamide]
- EC50: 95 nM
- Emax: 78%

SMILES: NC(=O)[C@H](F)c1c(F)cccc1CC[C@]1(O)CCC2=Cc3c(cnn3-c3ccc(F)cc3)C[C@@]21C1CC1 [Example 57, (2R)-2-(2-{2-[(4aR,5R)-4a-Cyclopropyl-1-(4-fluorophenyl)-5-hydroxy-1,4,4a,5,6,7-hexahydrocyclopenta[f]indazol-5-yl]ethyl}-6-fluorophenyl)-2-fluoroethanamide]
- EC50: 106 nM
- Emax: 86%

SMILES: CS(=O)(=O)c1ccccc1CC[C@]1(O)CCC2=Cc3c(cnn3-c3ccc(F)cc3)C[C@@]21C1CC1 [Example 58, (4aR,5R)-4a-Cyclopropyl-1-(4-fluorophenyl)-5-{2-[2-(methylsulfonyl)phenyl]ethyl}-1,4,4a,5,6,7-hexahydrocyclopenta[f]indazol-5-ol]
- EC50: 5 nM
- Emax: 88%
